US20240150848A1, “METHODS AND SYSTEMS FOR DIAGNOSIS, CLASSIFICATION, AND TREATMENT OF SMALL CELL LUNG CANCER AND OTHER HIGH-GRADE NEUROENDOCRINE CARCINOMAS” (BOARD OF REGENTS, THE UNIVERSITY OF TEXAS SYSTEM, priority 2021, published 2024)

System: SCLC-A and SCLC-N cell lines
Assay: Comparison of IC50 values between cell lines assigned to SCLC-A and SCLC-N by the methylation classifier (SCLC-DMC)
Type: cell-based
From the text: FIGS. 22A-22D show comparison of IC50 values for the BCL2i ABT-737 (FIG. 22A) and the AURKi CYC-116 (FIG. 22B) between cell lines assigned to SCLC-A and SCLC-N using SCLC-DMC. Clinical outcome depending on classification method used. Overall survival of ES-SCLC patients stratified by classification using the RNAseq signature or SCLC-DMC for SCLC-A (FIG. 22C) and SCLC-N(FIG. 22D). The box plot is highlighting the median as well as the 25th and 75th percentile in the box extended by 1.5× the IQR with bars. […] To validate that these same vulnerabilities are preserved using the methylation classifier (FIG. 30), the inventors compared IC50 values for over 400 drugs^24 between methylation-assigned SCLC-A and SCLC-N subtypes and identified numerous distinct vulnerabilities between the groups.

Structure (SMILES)	sensitivity by comparison of IC50 values (methylation-assigned SCLC-A cell lines compared with SCLC-N cell lines (FIG. 22A))	sensitivity by comparison of IC50 values (methylation-assigned SCLC-N cell lines compared with SCLC-A cell lines (FIG. 22B))
CN(C)CC[C@H](CSc1ccccc1)Nc1ccc(S(=O)(=O)NC(=O)c2ccc(N3CCN(Cc4ccccc4-c4ccc(Cl)cc4)CC3)cc2)cc1[N+](=O)[O-] [ABT-737]	more sensitive	–
Cc1nc(N)sc1-c1ccnc(Nc2ccc(N3CCOCC3)cc2)n1 [CYC-116]	–	more sensitive
